PubChem BioAssay (NCI)
“And” between values parts separate entries of the source, which are not always exact repeats. Equal entries are not always repeated.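 Briefly, cells in 96-well plates were exposed to five compound concentrations for 48 h, and endpoints were estimated by linear interpolation. At the GI50, growth is halved. TGI: concentration producing complete growth inhibition.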

Legend:
Assay in all cases: NCI tumour cell line growth inhibition, 48 h
M19-MEL melanoma = test system: M19-MEL melanoma
EKVX NSCLC = test system: EKVX NSCLC
HCT-116 colon = test system: HCT-116 colon
SNB-75 CNS = test system: SNB-75 CNS
KM20L2 colon = test system: KM20L2 colon
HT29 colon = test system: HT29 colon
TK-10 renal = test system: TK-10 renal
HOP-62 NSCLC = test system: HOP-62 NSCLC
CCRF-CEM leukemia = test system: CCRF-CEM leukemia
T-47D breast = test system: T-47D breast

| Compound | TGI (M19-MEL melanoma) [µM] | TGI (EKVX NSCLC) [µM] | TGI (HCT-116 colon) [µM] | TGI (SNB-75 CNS) | TGI (KM20L2 colon) [µM] | TGI (HT29 colon) [µM] | TGI (TK-10 renal) | TGI (HOP-62 NSCLC) | TGI (CCRF-CEM leukemia) [µM] | GI50 (HOP-62 NSCLC) | GI50 (CCRF-CEM leukemia) | GI50 (EKVX NSCLC) [µM] | GI50 (HCT-116 colon) | GI50 (SNB-75 CNS) | GI50 (HT29 colon) | GI50 (TK-10 renal) | GI50 (T-47D breast) | TGI (T-47D breast) |
| --- | --- | --- | --- | --- | --- | --- | --- | --- | --- | --- | --- | --- | --- | --- | --- | --- | --- | --- |
| O=S1Cc2ccccc2CS1 (stereo not given) | 33.7 | 44.9 | 57.2 | 61.5 µM | > 100 | 30.1 | 55.6 µM | – | – | – | – | – | – | – | – | – | – | – |
| COC(=O)C1C2CC3C(OC(=O)C31)C2I (stereo not given) | > 100 | > 100 | > 100 | > 100 µM | > 100 | > 100 | > 10 µM | > 100 µM | – | – | – | – | – | – | – | – | – | – |
| S=C1CNC(=S)CN1 | > 100 | – | > 100 | > 100 µM | > 100 | > 100 | > 100 µM | > 100 µM | > 100 | – | – | – | – | – | – | – | – | – |
| Cn1c(O)c(C=N)c(=O)n(C)c1=O | > 100 | > 100 | – | > 100 µM | > 100 | > 100 | > 100 µM | – | > 100 | – | – | – | – | – | – | – | – | – |
| CCC1(O)C(=O)OCc2c1cc1n(c2=O)Cc2c-1nc1ccccc1c2OC (stereo not given) | 1.89 | > 54.5 | 1.21 | 0.129 µM | – | > 87.1 | > 100 µM | < 0.01 µM | < 0.01 | – | – | – | – | – | – | – | – | – |
| CC1=C(C)C(=O)c2c(cc3c4ccccc4ccn23)C1=O | > 100 | > 100 | – | > 100 µM | > 100 | > 100 | > 100 µM | > 100 µM | – | – | – | – | – | – | – | – | – | – |
| CC12Oc3ccc4ccccc4c3C1c1c(ccc3ccccc13)O2 (stereo not given) | > 100 | > 100 | > 100 | > 100 µM | > 100 | > 100 | > 100 µM | – | > 100 | – | – | – | – | – | – | – | – | – |
| CCOC(=O)/C(=C/c1cc(OC)ccc1OC)CC(=O)O | > 100 | > 100 | > 100 | > 100 µM | > 100 | > 100 | > 100 µM | – | > 31.6 | – | – | – | – | – | – | – | – | – |
| OCC1OC(n2ccc3cnccc32)CC1O (stereo not given) | > 100 | > 100 | > 100 | > 100 µM | – | > 100 | > 100 µM | > 100 µM | > 100 | – | – | – | – | – | – | – | – | – |
| S=C(Nc1ccc(-c2nc3ccccc3s2)cc1)Nc1ccccn1 | – | > 50.1 | 55.5 | > 51.2 µM | – | > 80.4 | 70.2 µM | > 100 µM | > 100 | 44.4 µM | 25.5 µM | 12.2 | 21.5 µM | 12 µM | 28.3 µM | 24.1 µM | 23.6 µM | > 95.5 µM |
| C[C@H]1O[C@@H](O[C@H]2[C@@H](O)C[C@H](O[C@H]3[C@@H](O)C[C@H](O[C@H]4CC[C@]5(C)C6C[C@@H](O)[C@]7(C)[C@@H](C8=CC(=O)OC8)CC[C@]7(O)C6CC[C@@H]5C4)O[C@@H]3C)O[C@@H]2C)C[C@H](O)[C@@H]1O (stereo not given in full) | – | 0.124 | 0.0972 | 0.221 µM | – | 0.293 | 0.213 µM | 0.102 µM | 0.153 | 0.038 µM | 0.0216 µM | 0.0377 | 0.0207 µM | 0.08 µM | 0.0893 µM | 0.0266 µM | 0.0833 µM | 0.252 µM |
| Cc1oncc1C(=O)Nc1ccc(C(F)(F)F)cc1 | – | > 100 | > 100 | > 100 µM | – | > 100 | > 100 µM | > 100 µM | > 100 | > 100 µM | 17.8 µM | 18.7 | 15.6 µM | 23.5 µM | 66.3 µM | > 100 µM | 94 µM | > 100 µM |
| CCNC(=O)Nc1ccc(-c2nc3c(c(N4CCOC[C@@H]4C)n2)CCN(C2COC2)C3)cc1 | – | > 9.65 | > 100 | 1.13 µM and 1.1 µM | – | > 100 | 3.86 µM and 3.13 µM | 22 µM and > 7.45 µM | > 100 | 0.443 µM and 0.391 µM | 0.525 µM and 0.393 µM | 0.323 | 1.19 µM and 0.78 µM | 0.104 µM and 0.0737 µM | 0.587 µM and 0.409 µM | 0.195 µM and 0.128 µM | 0.0498 µM and 0.0316 µM | 0.591 µM and 0.381 µM |
| CC1C(=O)CCC1C(Sc1ccccc1)(Sc1ccccc1)Sc1ccccc1 (stereo not given) | > 100 | > 100 | > 100 | 64.6 µM | – | > 100 | > 100 µM | > 100 µM | 22.4 | – | – | – | – | – | – | – | – | – |
| COC1OC(COCc2ccc(Cl)cc2)C(OCc2ccc(Cl)cc2)C1O (stereo not given) | 35.9 | 46.3 | – | 32.8 µM | 31.9 | 33.2 | 67.4 µM | 32.1 µM | 46.7 | – | – | – | – | – | – | – | – | – |
| CNC(=O)c1cc(Oc2ccc3nc(NC(=O)c4cc(C(F)(F)F)cc(C(F)(F)F)c4)sc3c2)ccn1 | – | 23.3 | 11.9 | 14.8 µM | – | 16.8 | 13.3 µM | 10.8 µM | > 100 | 3.36 µM | 3.47 µM | 3.43 | 3.41 µM | 3.13 µM | 3.85 µM | 3.37 µM | 3.04 µM | 9.17 µM |
